Experimental data published in publication PMC13114161 (Antibiotics, 2026).
Like-named read-outs stand apart in the source and are kept apart here. Each block holds one compound with its values, some of them ahead of it. Peptide text beside a SMILES is read from it. * marks the point of attachment. βNA = c1ccc2cc(N*)ccc2c1

Key:
Type in all cases: cell-based, Pseudomonas aeruginosa
P. aeruginosa = assay: MIC potentiation of antimicrobial agents by EPIs; settings: for Fold difference of antibiotic MIC + TXA09155 / MIC of antibiotic + TXA09155: TXA09155 at […]; for Fold difference of antibiotic MIC + TXA11114 / MIC of antibiotic + TXA11114: TXA11114 at […];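 as to Fold difference of antibiotic MIC + TXA01182: TXA01182 tested at 6.25 µg/mL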;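 as to Fold difference of antibiotic MIC + TXA09155: TXA09155 tested at 6.25 µg/mL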; as to Fold difference of antibiotic MIC + TXA11114: TXA11114 at 6.25 µg/mL;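 as to MIC of antibiotic + TXA01182: TXA01182 tested at 6.25 µg/mL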;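 as to MIC of antibiotic + TXA09155: TXA09155 tested at 6.25 µg/mL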; as to MIC of antibiotic + TXA11114: TXA11114 at 6.25 µg/mL
Experimental: In contrast, the activities of gentamicin and imipenem were unchanged in the presence of TXA11114 under the conditions tested. Although gentamicin can be transported by the MexXY efflux system, the absence of potentiation in this assay is not sufficient to draw conclusions regarding MexXY inhibition or overall efflux specificity.
(§1) MIC assays for potentiation of antimicrobial activity against P. aeruginosa were performed as described previously.

[1] = tested on: multidrug-resistant P. aeruginosa clinical isolates from the CDC-FDA; assay: Levofloxacin MIC potentiation, CDC-FDA isolates; settings: for Levofloxacin MIC fold difference, +EPI / Levofloxacin MIC, +EPI: EPI […] (TXA11114, TXA09155) or 50 μg/mL (MC-04,124, PAβN)
Experimental: In a comparative study, the levofloxacin-potentiating activity of TXA11114 was evaluated alongside the well-characterized EPIs PAβN and MC-04,124 using P. aeruginosa clinical isolates obtained from the CDC and FDA Antimicrobial Resistance Isolate Bank and the Walter Reed Army Institute of Research (WRAIR). […] While PAβN has been widely studied in laboratory strains, its activity against the CDC/FDA P. aeruginosa panel has been reported only sparingly, limiting direct cross-study comparisons.
as §1

P. aeruginosa ATCC 27853 = assay: MIC and levofloxacin potentiation (broth microdilution)
Experimental: Once synthesized, the three fluorinated EPI analogs (TXA11114, TXA11164 and TXA12027) were first assayed for their antibacterial activities against P. aeruginosa ATCC 27853. They had MICs of 100, >200 and 100 µg/mL, respectively (Table 1). […] Particularly, the inactivity of TXA11164 was surprising as the pKa values of both the amines are similar to that in TXA11114.
as §1

[2] = tested on: P. aeruginosa ATCC 27853 ompH mutants EPIR32, EPIR36, EPIR38; assay: microbe, parasite or virus in culture
Experimental: as §1

[3] = Pseudomonas aeruginosa, ATCC27853, EPIR32
[4] = Pseudomonas aeruginosa, ATCC27853, EPIR36
[5] = Pseudomonas aeruginosa, ATCC27853, EPIR38
[6] = ATCC 27853 parent strain (Table S1)

Fold difference of antibiotic MIC + TXA01182 (P. aeruginosa; TXA01182 at […]): 2 fold
Fold difference of antibiotic MIC + TXA09155 (P. aeruginosa): 8 fold
MIC of antibiotic + TXA09155 (P. aeruginosa): 1 µg/mL
Fold difference of antibiotic MIC + TXA11114 (P. aeruginosa): 4 fold
MIC of antibiotic + TXA11114 (P. aeruginosa): 2 µg/mL
Compound: CO/N=C(\C(=O)N[C@@H]1C(=O)N2C(C(=O)[O-])=C(C[n+]3cccc4c3CCC4)CS[C@H]12)c1csc(N)n1 [Cefpirome]

Levofloxacin MIC fold difference, +EPI ([1]; AR-0229): 1 fold
Levofloxacin MIC, +EPI ([1]; AR-0229): 64 µg/mL
Levofloxacin MIC fold difference, +EPI ([1]; AR-0232): 16 fold
Levofloxacin MIC, +EPI ([1]; AR-0232): 0.5 µg/mL
Levofloxacin MIC fold difference, +EPI ([1]; AR-0233): 1 fold
Levofloxacin MIC, +EPI ([1]; AR-0233): 4 µg/mL
Levofloxacin MIC fold difference, +EPI ([1]; AR-0234): 16 fold
Levofloxacin MIC, +EPI ([1]; AR-0234): 0.5 µg/mL
Levofloxacin MIC fold difference, +EPI ([1]; AR-0239): 8, (8) fold
Levofloxacin MIC, +EPI ([1]; AR-0239): 8, (8) μg/mL
Levofloxacin MIC, +EPI ([1]; AR-0242): 0.5 µg/mL
Levofloxacin MIC fold difference, +EPI ([1]; AR-0244): 1 fold
Levofloxacin MIC fold difference, +EPI ([1]; AR-0246): 1 fold
Levofloxacin MIC, +EPI ([1]; AR-0246): 64 µg/mL
Levofloxacin MIC fold difference, +EPI ([1]; AR-0248): 1 fold
Levofloxacin MIC, +EPI ([1]; AR-0248): 16 µg/mL
Levofloxacin MIC fold difference, +EPI ([1]; AR-0249): 8, (8) fold
Levofloxacin MIC, +EPI ([1]; AR-0249): 8, (8) μg/mL
Levofloxacin MIC fold difference, +EPI ([1]; AR-0252): 32 fold
Levofloxacin MIC, +EPI ([1]; AR-0252): 1 µg/mL
Levofloxacin MIC fold difference, +EPI ([1]; AR-0253): 64 fold
Levofloxacin MIC, +EPI ([1]; AR-0253): 0.031 µg/mL
Levofloxacin MIC fold difference, +EPI ([1]; AR-0264): 1 fold
Levofloxacin MIC, +EPI ([1]; AR-0264): 64 µg/mL
Share of CDC isolates with levofloxacin MIC reduced ≥8-fold (potentiated) ([1]; TXA11114 […], PAβN and MC-04,124 50 µg/mL): ~ 54%
Compound: NC(N)=NCCC[C@H](NC(=O)[C@@H](N)Cc1ccccc1)C(=O)Nc1ccc2ccccc2c1 [PAβN, phenylalanine-arginine β-naphthylamide] (H-Phe-Arg-βNA)

EPI MIC (P. aeruginosa ATCC 27853; EPI alone, ATCC 27853): >200 µg/mL
Fold MIC reduction [LVX/EPI-LVX] (P. aeruginosa ATCC 27853; EPI at […], ATCC 27853, listed as TXA11167): lacked potentiation activity
MIC (P. aeruginosa ATCC 27853; Pseudomonas aeruginosa, ATCC27853, EPI alone, ATCC 27853, read-out: EPI MIC): > 200 µg/mL
LVX MIC (+EPI) (P. aeruginosa ATCC 27853; levofloxacin MIC with EPI at […], ATCC 27853): 1 µg/mL
Compound: NCCC(F)[C@@H](N)CNC(=O)c1cc2ccc(-c3ccc(F)cc3)cc2[nH]1 (stereo partly drawn) [TXA11164, N-((2S)-2,5-diamino-3-fluoropentyl)-6-(4-fluorophenyl)-1H-indole-2-carboxamide]

Fold difference of antibiotic MIC + TXA01182 (P. aeruginosa; TXA01182 at […]): 1 fold
MIC of antibiotic + TXA01182 (P. aeruginosa; TXA01182 at […]): 8 µg/mL
Fold difference of antibiotic MIC + TXA09155 (P. aeruginosa): 8 fold
MIC of antibiotic + TXA09155 (P. aeruginosa): 1 µg/mL
Fold difference of antibiotic MIC + TXA11114 (P. aeruginosa): 4 fold
MIC of antibiotic + TXA11114 (P. aeruginosa): 2 µg/mL
Compound: Nc1nc(/C(=N/O)C(=O)N[C@@H]2C(=O)N3C(C(=O)O)=C(/C=C4\CCN([C@@H]5CCNC5)C4=O)CS[C@H]23)ns1 [Ceftobiprole]

Second part, the compound before the results:

Compound: CC[C@H]1OC(=O)[C@H](C)[C@@H](O[C@H]2C[C@@](C)(OC)[C@@H](O)[C@H](C)O2)[C@H](C)[C@@H](O[C@@H]2O[C@H](C)C[C@H](N(C)C)[C@H]2O)[C@](C)(O)C[C@@H](C)CN(C)[C@H](C)[C@@H](O)[C@]1(C)O [AZM, azithromycin]
MIC [2, 3]: 32 µg/mL
MIC [2, 4]: 16 µg/mL
MIC [2, 5]: 64 µg/mL
MIC (P. aeruginosa ATCC 27853; [6]): 64 µg/mL

Compound: CN(C)c1cc(NC(=O)CNC(C)(C)C)c(O)c2c1C[C@H]1C[C@H]3[C@H](N(C)C)C(O)=C(C(N)=O)C(=O)[C@@]3(O)C(O)=C1C2=O [TGC, tigecycline]
MIC [2, 3]: 2 µg/mL
MIC [2, 4]: 2 µg/mL
MIC [2, 5]: 8 µg/mL
MIC (P. aeruginosa ATCC 27853; [6]): 8 µg/mL

Compound: polymyxin B [PMB]
MIC ([2]; EPIR32): 4 µg/mL
MIC ([2]; EPIR36): 4 µg/mL
MIC ([2]; EPIR38): 4 µg/mL
MIC (P. aeruginosa ATCC 27853; [6]): 2 µg/mL

Compound: NCC[C@H](O)C(=O)N[C@@H]1C[C@H](N)[C@@H](O[C@H]2O[C@H](CN)[C@@H](O)[C@H](O)[C@H]2O)[C@H](O)[C@H]1O[C@H]1O[C@H](CO)[C@@H](O)[C@H](N)[C@H]1O [AMK, amikacin]
MIC [2, 3]: 2 µg/mL
MIC [2, 4]: 1 µg/mL
MIC [2, 5]: 4 µg/mL
MIC (P. aeruginosa ATCC 27853; Pseudomonas aeruginosa, ATCC27853, ATCC 27853 parent strain (Table S1), read-out: MIC): 8 µg/mL
